IC50 data for eight compounds are collected here from patent publication USRE37421E, “Rapamycin derivatives” (SmithKline Beecham Corporation, priority 1999, dated 2001).

Structures are written as SMILES. Some results are limits rather than exact numbers.

This assay concerns Spleen cells from BDF1 female mice. The experiment in a line: Mitogenesis Assay for Immunosuppressive Activity (concanavalin A-stimulated spleen cells, 3H-thymidine uptake). The format is cell-based. Particulars: Concanavalin A 5 μg/ml, 72 hours. The procedure:
Spleen cells from BDF1 female mice were established in RPMI with 10% fetal calf serum at 5×10^6 /mL. […] Concanavalin A (5μ g/ml)was added as the mitogenic stimulus, and the final volume in the microtiter wells was adjusted to 200μ L with RPMI. Cell cultures were incubated for 72 hours at 37° C. in a 5% CO2 atmosphere and pulsed with 0.5μ Ci ^3 H-thymidine (specific activity […]) for the last 18 hours of the 72 hour culture. The cells were harvested on an automated multiple sample harvester and cell-associated radioactivity counted in a Beckman liquid scintillation counter. The results are expressed as the mean values derived from quadruplicate measurements. Cell viability was determined by trypan blue exclusion after 72 hours of incubation. Compounds to be tested were added to the microtiter plates at the appropriate dilutions prior to the addition of cells.

In the case of `CO[C@H]1C[C@@H]2CC[C@@H](C)[C@@](O)(O2)C(O)C(=O)N2CCCC[C@H]2C(=O)O[C@H]([C@H](C)C[C@@H]2CC[C@@H](O)[C@H](OC)C2)CC(=O)[C@H](C)/C=C(\C)[C@@H](O)[C@@H](OC)C(O)[C@H](C)C[C@H](C)/C=C/C=C/C=C/1C` (single isomer, unassigned) [Ex. 2, isomer 1, 14,30-Bisdihydrorapamycin], the IC50 (Mus musculus) was in the range of 1 to 10 nM. For `CO[C@H]1C[C@@H]2CC[C@@H](C)[C@@](O)(O2)C(O)C(=O)N2CCCC[C@H]2C(=O)O[C@H]([C@H](C)C[C@@H]2CC[C@@H](O)[C@H](OC)C2)CC(=O)[C@H](C)/C=C(\C)[C@@H](O)[C@@H](OC)C(O)[C@H](C)C[C@H](C)/C=C/C=C/C=C/1C` (single isomer, unassigned) [Ex. 2, isomer 2, 14,30-Bisdihydrorapamycin], for the setting “BDF1 mouse spleen cells”, the concentration for half-maximal inhibition (IC50) lay in the range of 1 to 10 nM. In the case of `CO[C@H]1C[C@@H]2CC[C@@H](C)[C@@](OC)(O2)C(O)C(=O)N2CCCC[C@H]2C(=O)O[C@H]([C@H](C)C[C@@H]2CC[C@@H](O)[C@H](OC)C2)CC(=O)[C@H](C)/C=C(\C)[C@@H](O)[C@@H](OC)C(O)[C@H](C)C[C@H](C)/C=C/C=C/C=C/1C` (single isomer, unassigned) [Ex. 3, major isomer, 14,30-Bisdihydro-13-O-methylrapamycins], under “Mus musculus”, the IC50 is 100 to 1000 nM. Compound `CO[C@H]1C[C@@H]2CC[C@@H](C)[C@@](O)(O2)C(=O)C(=O)N2CCCC[C@H]2C(=O)O[C@H]([C@H](C)C[C@@H]2CC[C@@H](O)[C@H](OC)C2)CC(=O)[C@H](C)/C=C(\C)[C@@H](O)[C@@H](OC)C(O)[C@H](C)C[C@H](C)/C=C/C=C/C=C/1C` (single isomer, unassigned) [Ex. 4, isomer 1, 30-Dihydro-rapamycins] registered an IC50 (BDF1 mouse spleen cells) of 2 nM. On to `CO[C@H]1C[C@@H]2CC[C@@H](C)[C@@](O)(O2)C(=O)C(=O)N2CCCC[C@H]2C(=O)O[C@H]([C@H](C)C[C@@H]2CC[C@@H](O)[C@H](OC)C2)CC(=O)[C@H](C)/C=C(\C)[C@@H](O)[C@@H](OC)C(O)[C@H](C)C[C@H](C)/C=C/C=C/C=C/1C` (single isomer, unassigned) [Ex. 4, isomer 2, 30-Dihydro-rapamycins], for which the half-inhibitory concentration (IC50) (BDF1 mouse spleen cells) was in the range of 0.1 to 1 nM. For the setting “Mus musculus”, `CO[C@H]1C[C@@H]2CC[C@@H](C)[C@@](O)(O2)C(O)C(=O)N2CCCC[C@H]2C(=O)O[C@H]([C@H](C)C[C@@H]2CC[C@@H](O)[C@H](OC)C2)CC(=O)[C@H](C)/C=C(\C)[C@@H](O)[C@@H](OC)C(=O)[C@H](C)C[C@H](C)/C=C/C=C/C=C/1C` (single isomer, unassigned; isomer 14) [Ex. 1, major isomer, 14-Dihydrorapamycin] gave an IC50 of 10 nM.

For the compound `CO[C@H]1C[C@@H]2CC[C@@H](C)[C@@](O)(O2)C(=O)C(=O)N2CCCC[C@H]2C(=O)O[C@H]([C@H](C)C[C@@H]2CC[C@@H](O)[C@H](OC)C2)CC(=O)[C@H](C)/C=C(\C)[C@H]2OC(C)(C)OC([C@H](C)C[C@H](C)/C=C/C=C/C=C/1C)[C@@H]2OC` [Ex. 5, 30-Dihydro-Rapamycin-28, 30-Acetonide], under “Mus musculus”, the IC50 was 100 to 1000 nM. Take `CO[C@H]1[C@@H](O)[C@H](C)C[C@H](C)/C=C/C=C/C=C(\C)[C@@H](OC)C[C@@H]2CC[C@@H](C)[C@](O)(CC(=O)N3CCCC[C@H]3C(=O)O[C@H]([C@H](C)C[C@@H]3CC[C@@H](O)[C@H](OC)C3)CC(=O)[C@H](C)/C=C(\C)[C@H]1O)O2` [Ex. 6, 14-Desoxo-30 (S) -dihydro-rapamycin]: the IC50 (Mus musculus) was > 1000 nM.
